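The compound was tested at five concentrations on cells cultured in 96-well plates, with a 48-hour exposure period. At the GI50, growth is halved.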 Calls of active or inactive are those of the source. Rule as the data show it: active = GI50 up to about 1.1 µM and inactive = higher.
Assays:
Experiment in all cases: DTP human tumour cell line panel, 48 h
K562 = system: K562
HCT-116 = system: HCT-116
A498 = system: A498
M14 = system: M14
TK-10 = system: TK-10
CAKI-1 = system: CAKI-1
SF-539 = system: SF-539
KM12 = system: KM12
UO-31 = system: UO-31
A549 = system: A549
HOP-62 = system: HOP-62
786-0 = system: 786-0
RXF 393 = system: RXF 393
NCI/ADR-RES = system: NCI/ADR-RES
SN12C = system: SN12C
MOLT-4 = system: MOLT-4
UACC-62 = system: UACC-62
CCRF-CEM = system: CCRF-CEM
IGROV-1 = system: IGROV-1
LOX IMVI = system: LOX IMVI

Measured: GI50

COc1ccc(S(=O)(=O)c2nnc(S(=O)(=O)Cc3ccccc3)s2)cc1
inactive: K562 5.92 µM | HCT-116 20.4 µM | A498 18.6 µM | M14 17.5 µM | TK-10 15.7 µM | CAKI-1 17.5 µM | SF-539 12 µM | KM12 29.6 µM | UO-31 21.6 µM | A549 20.8 µM | HOP-62 30.3 µM | 786-0 18.8 µM | RXF 393 16.2 µM | NCI/ADR-RES 43.7 µM | SN12C 23.7 µM | MOLT-4 2.58 µM

Oc1ccc(Cl)cc1C1=NC(/N=C\c2ccccc2)=NC(c2ccccc2)C1 (stereo not drawn)
inactive: K562 > 100 µM | HCT-116 5.94 µM | A498 73.6 µM | M14 > 100 µM | TK-10 > 100 µM | CAKI-1 4.3 µM | SF-539 22.8 µM | UACC-62 > 100 µM | CCRF-CEM > 100 µM | IGROV-1 7.01 µM | KM12 10.5 µM | UO-31 10.5 µM | A549 21.7 µM | HOP-62 25.7 µM | 786-0 19.1 µM | RXF 393 66.1 µM | NCI/ADR-RES 21.4 µM | SN12C 14.7 µM | MOLT-4 > 100 µM

CCOC(=O)N1c2ccccc2N(C(=O)OCC)C1CC(=O)/C=C/c1ccccc1
inactive: K562 3.72 µM | HCT-116 3.3 µM | A498 3.37 µM | LOX IMVI 2.45 µM | M14 4.45 µM | TK-10 3.74 µM | CAKI-1 1.44 µM | UACC-62 2.7 µM | CCRF-CEM 1.86 µM | IGROV-1 3.63 µM | KM12 3.05 µM | UO-31 3.82 µM | A549 3.36 µM | HOP-62 3.99 µM | 786-0 3.3 µM | RXF 393 3.85 µM | NCI/ADR-RES 2.73 µM | SN12C 3.66 µM | MOLT-4 2.4 µM

CCc1nnc2sc(-c3ccc(-c4ccc(Cl)cc4Cl)o3)nn12
inactive: K562 47.2 µM | HCT-116 62.5 µM | A498 30.3 µM | LOX IMVI 74.1 µM | M14 > 100 µM | TK-10 43.7 µM | CAKI-1 96.6 µM | CCRF-CEM 37.3 µM | IGROV-1 > 100 µM | KM12 > 100 µM | UO-31 67.8 µM | A549 73.5 µM | HOP-62 61.9 µM | 786-0 32.9 µM | RXF 393 3.79 µM | NCI/ADR-RES 50.2 µM | SN12C 60.7 µM | MOLT-4 44.1 µM

COc1ccc(/C=N/NS(=O)(=O)c2ccc(/C=C3\NC(=O)N(C)C3=O)cc2)cc1
inactive: K562 > 100 µM | HCT-116 > 100 µM | A498 70.6 µM | LOX IMVI > 100 µM | M14 > 100 µM | TK-10 49.3 µM | CAKI-1 > 100 µM | UACC-62 98.9 µM | CCRF-CEM 78.3 µM | IGROV-1 43.6 µM | KM12 > 100 µM | UO-31 50.4 µM | A549 > 100 µM | HOP-62 40.2 µM | 786-0 > 100 µM | RXF 393 38.6 µM | NCI/ADR-RES > 100 µM | SN12C > 100 µM | MOLT-4 63.5 µM

Cc1cc2c(cc1-c1cc3c(cc1C)C(C(C)C)=C(O)C(=O)/C3=C\Nc1nc(-c3ccccc3)cs1)/C(=C/Nc1nc(-c3ccccc3)cs1)C(=O)C(O)=C2C(C)C
inactive: K562 11.7 µM | HCT-116 8.61 µM | A498 35.6 µM | M14 12.9 µM | CAKI-1 35.7 µM | SF-539 18.2 µM | UACC-62 16.7 µM | CCRF-CEM 12.6 µM | IGROV-1 16.8 µM | KM12 32.1 µM | UO-31 > 10 µM | A549 19.1 µM | HOP-62 15.2 µM | 786-0 21.8 µM | RXF 393 15.3 µM | NCI/ADR-RES 26.1 µM | SN12C 22.3 µM | MOLT-4 35.7 µM

C=CCOC1OC(CS(=O)(=O)O)C(O)C(O)C1O (stereo not drawn)
inactive: K562 27 µM | HCT-116 > 100 µM | A498 > 100 µM | LOX IMVI > 100 µM | M14 > 100 µM | TK-10 > 100 µM | CAKI-1 > 100 µM | UACC-62 > 100 µM | CCRF-CEM > 10 µM | IGROV-1 > 100 µM | KM12 > 100 µM | UO-31 > 100 µM | HOP-62 > 100 µM | RXF 393 > 100 µM | NCI/ADR-RES > 100 µM | SN12C > 100 µM | MOLT-4 > 100 µM

Cc1cc(-c2nc3c(F)cccc3s2)ccc1N
inactive: K562 40.3 µM | HCT-116 85.1 µM | A498 8.2 µM | LOX IMVI 61.4 µM | M14 97.5 µM | CAKI-1 50.4 µM | UACC-62 21 µM | CCRF-CEM 3.94 µM | KM12 38.9 µM | UO-31 12.4 µM | A549 49.3 µM | HOP-62 62.5 µM | 786-0 92.5 µM | RXF 393 41.7 µM | NCI/ADR-RES > 100 µM | SN12C 28.2 µM | MOLT-4 10.7 µM
